In the supplement of paper PMC4862054:

Key:
Conditions in all cases: 72 h
[1] = system: CAL-148
Summary of the method: (§1)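 Compound dissolved in 5 µl medium was placed in 384-well plates before 20 µl of breast cancer cell suspension was added, and the plates were incubated for 72 h. Cells then received 2.5 µl CellTiter-Blue for 2 h at 37 °C, and fluorescence was read at 560/590 nm. EC50 values come from percent-inhibition dose-response fits that were censored at the highest concentration, with plates normalised to vehicle and a positive kill control and rows with a zero drug sensitivity score excluded.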

[2] = system: HCC1599
Summary of the method: (§2)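 Two sequential readouts followed a 72 h incubation of breast cancer cell lines with compound at 5 concentrations in 10-fold steps over a compound-specific 10,000-fold range: CellTox Green fluorescence (485/520 nm) for cell death, then CellTiter-Glo luminescence, after 10 min at room temperature, for viability. Each plate was normalised to 0.1 % DMSO and a positive kill control. Dose-response curves were fitted for EC50, censored at the top concentration.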

[3] = system: SK-BR-3
Summary of the method: as §2

[4] = system: DU-4475
Summary of the method: as §1

[5] = system: CAL-85-1
Summary of the method: as §1

[6] = system: HDQ-P1
Summary of the method: as §1

[7] = system: CAL-51
Summary of the method: as §1

[8] = system: DU-4475; remark: listed apart in the source
Protocol: (§3)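 Drug sensitivity and resistance testing (DSRT) of breast cancer cell lines in 384-well plates, 5 concentrations in 10-fold dilutions over a compound-specific 10,000-fold range. After 72 h, cytotoxicity was read by CellTox Green fluorescence and viability by CellTiter-Glo luminescence (multiplexed), normalised to DMSO and benzethonium chloride controls. EC50 is the inflection point of the fitted dose-response curve (bottom asymptote free, so it can be relative for partial curves) and is censored at the highest tested concentration. Rows with DSS 0 (no meaningful response) were excluded.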

[9] = system: CAL-120
Protocol: as §3

[10] = system: MDA-MB-468
Protocol: as §3

[11] = system: CAL-85-1; remark: listed apart in the source
Protocol: as §3

[12] = system: CAL-148; remark: listed apart in the source
Protocol: as §3

[13] = system: Hs578T
Protocol: as §3

[14] = system: CAL-51; remark: listed apart in the source
Protocol: as §3

[15] = system: DU-4475; remark: listed apart in the source
Summary of the method: as §2

[16] = system: CAL-120; remark: listed apart in the source
Summary of the method: as §2

[17] = system: BT-549
Summary of the method: as §2

[18] = system: CAL-85-1; remark: listed apart in the source
Summary of the method: as §2

[19] = system: CAL-148; remark: listed apart in the source
Summary of the method: as §2

[20] = system: Hs578T; remark: listed apart in the source
Summary of the method: as §2

[21] = system: MDA-MB-436
Summary of the method: as §2

[22] = system: MDA-MB-231
Summary of the method: as §2

[23] = system: HCC1143
Summary of the method: as §2

[24] = system: HCC1937
Summary of the method: as §1

[25] = system: CAL-120; remark: listed apart in the source
Summary of the method: as §1

[26] = system: MDA-MB-468; remark: listed apart in the source
Summary of the method: as §1

[27] = system: BT-549; remark: listed apart in the source
Summary of the method: as §1

[28] = system: Hs578T; remark: listed apart in the source
Summary of the method: as §1

[29] = system: HCC1599; remark: listed apart in the source
Summary of the method: as §1

[30] = system: SK-BR-3; remark: listed apart in the source
Summary of the method: as §1

[31] = system: MDA-MB-436; remark: listed apart in the source
Summary of the method: as §1

[32] = system: MDA-MB-231; remark: listed apart in the source
Summary of the method: as §1

[33] = system: HCC1143; remark: listed apart in the source
Summary of the method: as §1

[34] = system: MDA-MB-453
Summary of the method: as §1

[35] = system: HCC1937; remark: listed apart in the source
Protocol: as §3

[36] = system: MDA-MB-231; remark: listed apart in the source
Protocol: as §3

[37] = system: HCC1937; remark: listed apart in the source
Summary of the method: as §2

[38] = system: MFM-223
Summary of the method: as §2

[39] = system: MDA-MB-453; remark: listed apart in the source
Summary of the method: as §2

[40] = system: MCF-10A
Summary of the method: as §2

[41] = system: HDQ-P1; remark: listed apart in the source
Summary of the method: as §2

[42] = system: MFM-223; remark: listed apart in the source
Summary of the method: as §1

## C=C(c1ccc(C(=O)O)cc1)c1cc2c(cc1C)C(C)(C)CCC2(C)C [Bexarotene]
[1]
  EC50, CellTiter-Blue viability: 1730 nM
[2]
  EC50, CellTiter-Glo: 165 nM
[3]
  EC50, CellTiter-Glo: 254 nM

## COc1cc([C@@H]2c3cc4c(cc3[C@@H](O[C@@H]3O[C@@H]5CO[C@@H](C)O[C@H]5[C@H](O)[C@H]3O)[C@H]3COC(=O)[C@H]23)OCO4)cc(OC)c1O [Etoposide]
[4]
  EC50, CellTiter-Blue viability: 180 nM
[5]
  EC50, CellTiter-Blue viability: 2550 nM
[1]
  EC50, CellTiter-Blue viability: 1130 nM
[6]
  EC50, CellTiter-Blue viability: 775 nM
[7]
  EC50, CellTiter-Blue viability: 367 nM
[8]
  EC50, CellTox Green: 3.83 µM
[9]
  EC50, CellTox Green: 3670 nM
[10]
  EC50, CellTox Green: 2330 nM
[11]
  EC50, CellTox Green: 7.71 µM
[12]
  EC50, CellTox Green: 3.02 µM
[13]
  EC50, CellTox Green: 55.8 nM
[14]
  EC50, CellTox Green: 624 nM
[15]
  EC50, CellTiter-Glo: 1260 nM
[16]
  EC50, CellTiter-Glo: 1550 nM
[17]
  EC50, CellTiter-Glo: 3990 nM
[18]
  EC50, CellTiter-Glo: 9.97 µM
[19]
  EC50, CellTiter-Glo: 980 nM
[20]
  EC50, CellTiter-Glo: 1490 nM
[2]
  EC50, CellTiter-Glo: 1150 nM
[3]
  EC50, CellTiter-Glo: 1210 nM
[21]
  EC50, CellTiter-Glo: 977 nM
[22]
  EC50, CellTiter-Glo: 1850 nM
[23]
  EC50, CellTiter-Glo: 1650 nM
[24]
  EC50, CellTiter-Blue viability: 3700 nM
[25]
  EC50, CellTiter-Blue viability: 2260 nM
[26]
  EC50, CellTiter-Blue viability: 1810 nM
[27]
  EC50, CellTiter-Blue viability: 224 nM
[28]
  EC50, CellTiter-Blue viability: 3040 nM
[29]
  EC50, CellTiter-Blue viability: 1700 nM
[30]
  EC50, CellTiter-Blue viability: 785 nM
[31]
  EC50, CellTiter-Blue viability: 2610 nM
[32]
  EC50, CellTiter-Blue viability: 1020 nM
[33]
  EC50, CellTiter-Blue viability: 1600 nM

## NC(=O)Nc1cc(-c2cccc(F)c2)sc1C(=O)N[C@H]1CCCNC1 [AZD 7762]
[4]
  EC50, CellTiter-Blue viability: 619 nM
[5]
  EC50, CellTiter-Blue viability: 215 nM
[34]
  EC50, CellTiter-Blue viability: 232 nM
[1]
  EC50, CellTiter-Blue viability: 661 nM
[6]
  EC50, CellTiter-Blue viability: 508 nM
[7]
  EC50, CellTiter-Blue viability: 564 nM
[24]
  EC50, CellTiter-Blue viability: 613 nM
[25]
  EC50, CellTiter-Blue viability: 560 nM
[26]
  EC50, CellTiter-Blue viability: 610 nM
[27]
  EC50, CellTiter-Blue viability: 670 nM
[28]
  EC50, CellTiter-Blue viability: 211 nM
[29]
  EC50, CellTiter-Blue viability: 87.7 nM
[30]
  EC50, CellTiter-Blue viability: 364 nM
[31]
  EC50, CellTiter-Blue viability: 333 nM
[32]
  EC50, CellTiter-Blue viability: 347 nM
[33]
  EC50, CellTiter-Blue viability: 705 nM

## Cc1ccc(C(=O)Nc2ccc(CN3CCN(C)CC3)c(C(F)(F)F)c2)cc1C#Cc1cnc2cccnn12 [Ponatinib]
[34]
  EC50, CellTiter-Blue viability: 282 nM
[1]
  EC50, CellTiter-Blue viability: 295 nM
[6]
  EC50, CellTiter-Blue viability: 307 nM
[7]
  EC50, CellTiter-Blue viability: 869 nM
[35]
  EC50, CellTox Green: 387 nM
[9]
  EC50, CellTox Green: 482 nM
[36]
  EC50, CellTox Green: 231 nM
[15]
  EC50, CellTiter-Glo: 588 nM
[37]
  EC50, CellTiter-Glo: > 1000 nM
[16]
  EC50, CellTiter-Glo: 162 nM
[38]
  EC50, CellTiter-Glo: 31.8 nM
[17]
  EC50, CellTiter-Glo: 689 nM
[18]
  EC50, CellTiter-Glo: > 1 µM
[39]
  EC50, CellTiter-Glo: > 1000 nM
[21]
  EC50, CellTiter-Glo: 265 nM
[22]
  EC50, CellTiter-Glo: 382 nM
[40]
  EC50, CellTiter-Glo: 643 nM
[41]
  EC50, CellTiter-Glo: 220 nM
[25]
  EC50, CellTiter-Blue viability: 190 nM
[42]
  EC50, CellTiter-Blue viability: 8.43 nM
[27]
  EC50, CellTiter-Blue viability: 893 nM
[28]
  EC50, CellTiter-Blue viability: > 1000 nM
[29]
  EC50, CellTiter-Blue viability: 217 nM
